Tested on: not listed separately
Experiment: Cytotoxicity in A549 cells (MTS/PMS)
Format: cell-based
Conditions: human; A549 cells (Table 6)
Experimental: A similar protocol was used to assess cytotoxicity in A549 cells with the difference that cells were seeded at 2×10^4 cells/well.

| Compound | CC50 at 4 days [nM] |
| --- | --- |
| COc1cc(NC(C(=O)c2c[nH]c3ccc(F)cc23)c2ccccc2)cc(OC)c1 (stereo not drawn) [CPD-131] | 11000 |
| COc1cc(NC(C(=O)c2c[nH]c3ccccc23)c2cccnc2)cc(OC)c1 (stereo not drawn) [CPD-236] | 65000 |
| COc1cc(NC(C(=O)c2c[nH]c3ccccc23)c2ccccc2)cc(OCCO)c1 (stereo not drawn) [CPD-255] | 59000 |
| COc1cc(NC(C(=O)c2c[nH]c3ccccc23)c2cc3ccccn3n2)cc(OC)c1 (stereo not drawn) [CPD-293] | > 117000 |
| COc1cc(NC(C(=O)c2c[nH]c3ccccc23)c2cnc(OC)cn2)cc(OC)c1 (stereo not drawn) [CPD-294] | 61000 |
| COc1cc(CO)cc(NC(C(=O)c2c[nH]c3ccccc23)c2ccc(C)nc2)c1 (stereo not drawn) [CPD-320] | > 124000 |
| COc1cccc(NC(C(=O)c2c[nH]c3ccccc23)c2nc3ccccc3o2)c1 (stereo not drawn) [CPD-328] | 12000 |
| COc1cc(CO)cc(NC(C(=O)c2c[nH]c3ccc(F)cc23)c2cccnc2)c1 (stereo not drawn) [CPD-334] | 85000 |
| COc1cc(NC(C(=O)c2c[nH]c3ccccc23)c2cc3ccccn3n2)cc(OCCO)c1 (stereo not drawn) [CPD-336] | > 123000 |

Tested on: not listed separately
Experiment: in vitro
Conditions: African green monkey, uninfected quiescent Vero-B cells

| Compound | CC50 at 4 days [nM] |
| --- | --- |
| COc1cc(NC(C(=O)c2c[nH]c3ccccc23)c2ccccc2)cc(OCCO)c1 (stereo not drawn) [CPD-255] | 63000 |
| COc1cc(NC(C(=O)c2c[nH]c3ccccc23)c2cc3ccccn3n2)cc(OC)c1 (stereo not drawn) [CPD-293] | 65000 |
| COc1cc(NC(C(=O)c2c[nH]c3ccccc23)c2cnc(OC)cn2)cc(OC)c1 (stereo not drawn) [CPD-294] | 41000 |
| COc1cc(CO)cc(NC(C(=O)c2c[nH]c3ccccc23)c2ccc(C)nc2)c1 (stereo not drawn) [CPD-320] | > 124000 |
| COc1cc(CO)cc(NC(C(=O)c2c[nH]c3ccc(F)cc23)c2cccnc2)c1 (stereo not drawn) [CPD-334] | 122000 |
| COc1cc(NC(C(=O)c2c[nH]c3ccccc23)c2cc3ccccn3n2)cc(OCCO)c1 (stereo not drawn) [CPD-336] | > 123000 |

Tested on: DENV-2 NGC
Experiment: Antiviral activity against DENV-2 NGC in Vero-B cells (viral RNA load by RT-qPCR)
Format: cell-based, Dengue virus
Conditions: Dengue virus, DENV2, Vero B, DENV-2 in Vero-B cells; inhibition of viral RNA replication by 50% (Table 3)

| Compound | EC50 [nM] |
| --- | --- |
| COc1cc(NC(C(=O)c2c[nH]c3ccc(F)cc23)c2ccccc2)cc(OC)c1 (stereo not drawn) [CPD-131] | 10 |
| COc1cc(NC(C(=O)c2c[nH]c3ccccc23)c2cccnc2)cc(OC)c1 (stereo not drawn) [CPD-236] | 20 |
| COc1cc(NC(C(=O)c2c[nH]c3ccccc23)c2ccccc2)cc(OCCO)c1 (stereo not drawn) [CPD-255] | 40 |
| COc1cc(NC(C(=O)c2c[nH]c3ccccc23)c2cc3ccccn3n2)cc(OC)c1 (stereo not drawn) [CPD-293] | 1 |
| COc1cc(NC(C(=O)c2c[nH]c3ccccc23)c2cnc(OC)cn2)cc(OC)c1 (stereo not drawn) [CPD-294] | 20 |
| COc1cc(CO)cc(NC(C(=O)c2c[nH]c3ccccc23)c2ccc(C)nc2)c1 (stereo not drawn) [CPD-320] | 70 |
| COc1cccc(NC(C(=O)c2c[nH]c3ccccc23)c2nc3ccccc3o2)c1 (stereo not drawn) [CPD-328] | 10 |
| COc1cc(CO)cc(NC(C(=O)c2c[nH]c3ccc(F)cc23)c2cccnc2)c1 (stereo not drawn) [CPD-334] | 70 |
| COc1cc(NC(C(=O)c2c[nH]c3ccccc23)c2cc3ccccn3n2)cc(OCCO)c1 (stereo not drawn) [CPD-336] | 10 |

Tested on: uninfected quiescent Vero-B cells
Experiment: Cytotoxic assay in uninfected quiescent Vero-B cells (MTS/PMS)
Conditions: 4 days (Table 3)

| Compound | CC50 [nM] |
| --- | --- |
| COc1cc(NC(C(=O)c2c[nH]c3ccc(F)cc23)c2ccccc2)cc(OC)c1 (stereo not drawn) [CPD-131] | 13000 |
| COc1cc(NC(C(=O)c2c[nH]c3ccccc23)c2cccnc2)cc(OC)c1 (stereo not drawn) [CPD-236] | 69000 |
| COc1cccc(NC(C(=O)c2c[nH]c3ccccc23)c2nc3ccccc3o2)c1 (stereo not drawn) [CPD-328] | 13000 |

Tested on: DENV-2 NGC
Experiment: Antiviral activity against DENV-2 NGC in A549 cells (viral RNA load by RT-qPCR)
Format: cell-based
Conditions: Dengue virus, DENV2; DENV-2 in A549 cells (Table 6)

| Compound | EC50 [nM] |
| --- | --- |
| COc1cc(NC(C(=O)c2c[nH]c3ccc(F)cc23)c2ccccc2)cc(OC)c1 (stereo not drawn) [CPD-131] | 8 |
| COc1cc(NC(C(=O)c2c[nH]c3ccccc23)c2cccnc2)cc(OC)c1 (stereo not drawn) [CPD-236] | 19 |
| COc1cc(NC(C(=O)c2c[nH]c3ccccc23)c2ccccc2)cc(OCCO)c1 (stereo not drawn) [CPD-255] | 29 |
| COc1cc(NC(C(=O)c2c[nH]c3ccccc23)c2cc3ccccn3n2)cc(OC)c1 (stereo not drawn) [CPD-293] | 3 |
| COc1cc(NC(C(=O)c2c[nH]c3ccccc23)c2cnc(OC)cn2)cc(OC)c1 (stereo not drawn) [CPD-294] | 15 |
| COc1cc(CO)cc(NC(C(=O)c2c[nH]c3ccccc23)c2ccc(C)nc2)c1 (stereo not drawn) [CPD-320] | 6 |
| COc1cccc(NC(C(=O)c2c[nH]c3ccccc23)c2nc3ccccc3o2)c1 (stereo not drawn) [CPD-328] | 6 |
| COc1cc(CO)cc(NC(C(=O)c2c[nH]c3ccc(F)cc23)c2cccnc2)c1 (stereo not drawn) [CPD-334] | 24 |
| COc1cc(NC(C(=O)c2c[nH]c3ccccc23)c2cc3ccccn3n2)cc(OCCO)c1 (stereo not drawn) [CPD-336] | 5 |

Tested on: DENV-4 strain Dak HD 34 460
Experiment: Antiviral activity against DENV-4 in Vero-B cells (viral RNA load by RT-qPCR)
Format: cell-based, Dengue virus
Conditions: Dengue virus, DENV4, Vero B

| Compound | EC50 [nM] |
| --- | --- |
| COc1cc(NC(C(=O)c2c[nH]c3ccc(F)cc23)c2ccccc2)cc(OC)c1 (stereo not drawn) [CPD-131] | 4770 |
| COc1cc(NC(C(=O)c2c[nH]c3ccccc23)c2cccnc2)cc(OC)c1 (stereo not drawn) [CPD-236] | 2450 |
| COc1cc(NC(C(=O)c2c[nH]c3ccccc23)c2ccccc2)cc(OCCO)c1 (stereo not drawn) [CPD-255] | 3360 |
| COc1cc(NC(C(=O)c2c[nH]c3ccccc23)c2cc3ccccn3n2)cc(OC)c1 (stereo not drawn) [CPD-293] | 1150 |
| COc1cc(NC(C(=O)c2c[nH]c3ccccc23)c2cnc(OC)cn2)cc(OC)c1 (stereo not drawn) [CPD-294] | 7210 |
| COc1cc(CO)cc(NC(C(=O)c2c[nH]c3ccccc23)c2ccc(C)nc2)c1 (stereo not drawn) [CPD-320] | 9440 |
| COc1cccc(NC(C(=O)c2c[nH]c3ccccc23)c2nc3ccccc3o2)c1 (stereo not drawn) [CPD-328] | 2840 |
| COc1cc(CO)cc(NC(C(=O)c2c[nH]c3ccc(F)cc23)c2cccnc2)c1 (stereo not drawn) [CPD-334] | 16800 |
| COc1cc(NC(C(=O)c2c[nH]c3ccccc23)c2cc3ccccn3n2)cc(OCCO)c1 (stereo not drawn) [CPD-336] | 5770 |

Tested on: DENV-3 strain H87 prototype
Experiment: Antiviral activity against DENV-3 in Vero-B cells (viral RNA load by RT-qPCR)
Format: cell-based, Dengue virus
Conditions: Dengue virus, DENV3, Vero B

| Compound | EC50 [nM] |
| --- | --- |
| COc1cc(NC(C(=O)c2c[nH]c3ccc(F)cc23)c2ccccc2)cc(OC)c1 (stereo not drawn) [CPD-131] | 680 |
| COc1cc(NC(C(=O)c2c[nH]c3ccccc23)c2cccnc2)cc(OC)c1 (stereo not drawn) [CPD-236] | 310 |
| COc1cc(NC(C(=O)c2c[nH]c3ccccc23)c2ccccc2)cc(OCCO)c1 (stereo not drawn) [CPD-255] | 1660 |
| COc1cc(NC(C(=O)c2c[nH]c3ccccc23)c2cc3ccccn3n2)cc(OC)c1 (stereo not drawn) [CPD-293] | 40 |
| COc1cc(NC(C(=O)c2c[nH]c3ccccc23)c2cnc(OC)cn2)cc(OC)c1 (stereo not drawn) [CPD-294] | 670 |
| COc1cc(CO)cc(NC(C(=O)c2c[nH]c3ccccc23)c2ccc(C)nc2)c1 (stereo not drawn) [CPD-320] | 1170 |
| COc1cccc(NC(C(=O)c2c[nH]c3ccccc23)c2nc3ccccc3o2)c1 (stereo not drawn) [CPD-328] | 130 |
| COc1cc(CO)cc(NC(C(=O)c2c[nH]c3ccc(F)cc23)c2cccnc2)c1 (stereo not drawn) [CPD-334] | 810 |
| COc1cc(NC(C(=O)c2c[nH]c3ccccc23)c2cc3ccccn3n2)cc(OCCO)c1 (stereo not drawn) [CPD-336] | 350 |

Tested on: DENV-1 Djibouti strain D1/H/IMTSSA/98/606
Experiment: Antiviral activity against DENV-1 in Vero-B cells (viral RNA load by RT-qPCR)
Format: cell-based, Dengue virus
Conditions: Dengue virus, DENV1, Vero B

| Compound | EC50 [nM] |
| --- | --- |
| COc1cc(NC(C(=O)c2c[nH]c3ccc(F)cc23)c2ccccc2)cc(OC)c1 (stereo not drawn) [CPD-131] | 250 |
| COc1cc(NC(C(=O)c2c[nH]c3ccccc23)c2cccnc2)cc(OC)c1 (stereo not drawn) [CPD-236] | 170 |
| COc1cc(NC(C(=O)c2c[nH]c3ccccc23)c2ccccc2)cc(OCCO)c1 (stereo not drawn) [CPD-255] | 750 |
| COc1cc(NC(C(=O)c2c[nH]c3ccccc23)c2cc3ccccn3n2)cc(OC)c1 (stereo not drawn) [CPD-293] | 60 |
| COc1cc(NC(C(=O)c2c[nH]c3ccccc23)c2cnc(OC)cn2)cc(OC)c1 (stereo not drawn) [CPD-294] | 230 |
| COc1cc(CO)cc(NC(C(=O)c2c[nH]c3ccccc23)c2ccc(C)nc2)c1 (stereo not drawn) [CPD-320] | 960 |
| COc1cccc(NC(C(=O)c2c[nH]c3ccccc23)c2nc3ccccc3o2)c1 (stereo not drawn) [CPD-328] | 200 |
| COc1cc(CO)cc(NC(C(=O)c2c[nH]c3ccc(F)cc23)c2cccnc2)c1 (stereo not drawn) [CPD-334] | 1290 |
| COc1cc(NC(C(=O)c2c[nH]c3ccccc23)c2cc3ccccn3n2)cc(OCCO)c1 (stereo not drawn) [CPD-336] | 260 |
